The results in this text go back to US20260193236A1 (Protego Biopharma, Inc., priority 2022, published 2026).

The subject of this experiment is IRE1-XBP1s (XBP1-RLuc splicing reporter in HEK293 T-REx cells). Description: IRE1-XBP1s activation assay (XBP1-RLuc splicing reporter, HEK293 T-REx cells, luminescence relative to thapsigargin). It counts as cell-based. The conditions noted are these: 18 h, read-out: Activity (IRE1-XBP1s activation, luminescence as % signal relative to thapsigargin, % Tg). The protocol:
IRE1-XBP1s activation Assay: HEK293 T-REx cells stably expressing the XBP1-RLuc splicing reporter were treated with an IRE1-XBP1s activator provided herein (10 μM) in the presence or absence of the IRE1 active site inhibitor 4μ8C (32 μM) for 18 h. Luminescence was shown as the percentage signal relative to thapsigargin (Tg) (500 nM, 18 h).

[1] abbreviates: compound 10 μM, HEK293 T-REx XBP1-RLuc reporter cells, relative to thapsigargin (Tg) 500 nM.

Where a name gives a salt, the structure may show the parent alone. Read-outs that look alike come from different tables or passages of the source. Bounds are passed on as bounds.

Consider `C#CC1CCCCC1OCCC(=O)Nc1cnn(CC(=O)N(C)CCOc2ccc(C)cc2)c1` (stereo not drawn) [Compound 2, 3-((2-ethynylcyclohexyl)oxy)-N-(1-(2-(methyl(2-(p-tolyloxy)ethyl)amino)-2-oxoethyl)-1H-pyrazol-4-yl)propanamide hydrochloride], for which the activation at 10 µM was greater than 50%.
With `Cc1ccc(OCCN(C)C(=O)Cn2cc(NC(=O)CCOC3CCC(C)(C)CC3)cn2)cc1` [Compound 3, 3-((4,4-dimethylcyclohexyl)oxy)-N-(1-(2-(methyl(2-(p-tolyloxy)ethyl)amino)-2-oxoethyl)-1H-pyrazol-4-yl)propanamide], the activation at 10 µM under setting [1] was greater than 50%.
For the compound `Cc1ccc(OCCN(C)C(=O)Cn2cc(NC(=O)CCOC3CCCCC3(C)C)cn2)cc1` (stereo not drawn) [Compound 4], the activation at 10 µM under setting [1] is less than 30%.
Still for that read-out and setting: to `CCc1ccc(OCCN(C)C(=O)Cn2cc(NC(=O)CCOC3CCCCC3)cn2)cc1` [Compound 5] belongs 30 to 50%.
Turning to `Cc1ccc(OCCN(C)C(=O)Cn2cc(NC(=O)CCOc3cccnc3)cn2)cc1` [Compound 6, N-(1-(2-(methyl(2-(p-tolyloxy)ethyl)amino)-2-oxoethyl)-1H-pyrazol-4-yl)-3-(pyridin-3-yloxy)propanamide], the activation at 10 µM under setting [1] was greater than 50%.
For the compound `Cc1ccc(OCCN(C)C(=O)Cn2cc(NC(=O)CCOc3ccnc(Cl)c3)cn2)cc1` [Compound 8], under setting [1], the activation at 10 µM was greater than 50%.
Same read-out and setting: in the case of `Cc1ccc(OCCN(C)C(=O)Cn2cc(NC(=O)CCOc3ccncc3)cn2)cc1` [Compound 9] it was greater than 50%; in that of `Cc1ccc(OCCN(C)C(=O)Cn2cc(NC(=O)CCOc3ccc(F)nc3C)cn2)cc1` [Compound 10], 30 to 50%; in that of `Cc1ccc(OCCN(C)C(=O)Cn2cc(NC(=O)CCOc3ccc(C)nc3C)cn2)cc1` [Compound 11], 30 to 50%.
Take `Cc1ccc(OCCN(C)C(=O)Cn2cc(NC(=O)CCOc3cnccc3C(F)(F)F)cn2)cc1` [Compound 12]: the activation at 10 µM under setting [1] is less than 30%.
Same read-out and setting: in the case of `Cc1ccc(OCCN(C)C(=O)Cn2cc(NC(=O)CCOc3cccnc3C)cn2)cc1` [Compound 13] it was 30 to 50%; in that of `Cc1ccc(OCCN(C)C(=O)Cn2cc(NC(=O)CCOc3c(C)ccnc3C)cn2)cc1` [Compound 14], 30 to 50%; in that of `Cc1ccc(OCCN(C)C(=O)Cn2cc(NC(=O)CCOc3c(C(C)C)ccnc3C)cn2)cc1` [Compound 15], greater than 50%.
On the same count and under the same terms, to `Cc1ccc(OCCN(C)C(=O)Cn2cc(NC(=O)CCOc3cccnc3C(F)(F)F)cn2)cc1` [Compound 16] belongs 30 to 50%; to `Cc1ccc(OCCN(C)C(=O)Cn2cc(NC(=O)CCOc3c(C)ccnc3N)cn2)cc1` [Compound 17], less than 30%.
Same read-out and setting: in the case of `Cc1ccc(OCCN(C)C(=O)Cn2cc(NC(=O)CCOc3c(F)cncc3F)cn2)cc1` [Compound 18] it was greater than 50%; in that of `CN(CCOc1ccc(C(F)(F)F)cc1)C(=O)Cn1cc(NC(=O)CCOc2ccncc2F)cn1` [Compound 19], 30 to 50%.
As to `Cc1ccc(OCCN(C)C(=O)Cn2cc(NC(=O)CCOc3ccc(C#N)cc3)cn2)cc1` [Compound 20, 3-(4-cyanophenoxy)-N-(1-(2-(methyl(2-(p-tolyloxy)ethyl)amino)-2-oxoethyl)-1H-pyrazol-4-yl)propanamide], the activation at 10 µM was less than 30%.
For the compound `Cc1ccc(OCCN(C)C(=O)Cn2cc(NC(=O)CCN(C)c3ccccc3)cn2)cc1` [Compound 21], the activation at 10 µM under setting [1] was less than 30%.
As for `CN(CCc1ccc(Cl)cc1)C(=O)Cn1cc(NC(=O)CCOc2ccccc2)cn1` [Compound 22, N-(1-(2-((4-chlorophenethyl)(methyl)amino)-2-oxoethyl)-1H-pyrazol-4-yl)-3-phenoxypropanamide hydrochloride], the activation at 10 µM was less than 30%.
Turning to `Cc1ccc(OCCN(C)C(=O)Cn2cc(NC(=O)CCN(C(=O)OC(C)(C)C)c3ccccc3)cn2)cc1` [Compound 23], the activation at 10 µM under setting [1] is less than 30%.
The same measure, in the same setting: in the case of `COc1ccc(OCCN(C)C(=O)Cn2cc(NC(=O)CCOc3ccccc3)cn2)cc1` [Compound 24] it was less than 30%.
With `CN(CCOc1ccc(C#N)cc1)C(=O)Cn1cc(NC(=O)CCOc2ccccc2)cn1` [Compound 25], the activation at 10 µM under setting [1] is less than 30%.
Take `CCc1ccc(OCCN(C)C(=O)Cn2cc(NC(=O)CCOc3ccccc3)cn2)cc1` [Compound 26]: the activation at 10 µM under setting [1] is greater than 50%.
Consider `Cc1ccc(OCCN(C)C(=O)Cn2cc(NC(=O)CCNc3ccccc3)cn2)cc1` [Compound 27], for which the activation at 10 µM under setting [1] is greater than 50%.
Still for that read-out and setting: in the case of `COc1ccccc1OCCC(=O)Nc1cnn(CC(=O)N(C)CCOc2ccc(C)cc2)c1` [Compound 28] it was greater than 50%; in that of `CN(CCOc1ccc(F)cc1)C(=O)Cn1cc(NC(=O)CCOc2ccccc2)cn1` [Compound 29], less than 30%; in that of `Cc1ccc(OCCN(C)C(=O)Cn2cc(NC(=O)CCOc3ccccc3Cl)cn2)cc1` [Compound 32], greater than 50%.
The same measure, in the same setting: to `Cc1ccc(OCCN(C)C(=O)Cn2cc(NC(=O)CCOc3ccc4c(c3)OCO4)cn2)cc1` [Compound 33] belongs greater than 50%; to `Cc1ccc(OCCN(C)C(=O)Cn2cc(NC(=O)CCOc3ccccc3C)cn2)cc1` [Compound 34], greater than 50%; to `Cc1ccc(OCCN(C)C(=O)Cn2cc(NC(=O)CCOc3ccc(F)cc3C)cn2)cc1` [Compound 35], greater than 50%.
For `COc1cccc(OCCC(=O)Nc2cnn(CC(=O)N(C)CCOc3ccc(C)cc3)c2)c1` [Compound 36], under setting [1], the activation at 10 µM is greater than 50%.
For the compound `Cc1ccc(OCCN(C)C(=O)Cn2cc(NC(=O)C(C)(C)COc3ccccc3)cn2)cc1` [Compound 37, 2,2-dimethyl-N-(1-(2-(methyl(2-(p-tolyloxy)ethyl)amino)-2-oxoethyl)-1H-pyrazol-4-yl)-3-phenoxypropanamide], the activation at 10 µM is less than 30%.
As to `Cc1ccc(OCCN(C)C(=O)Cn2cc(NC(=O)CCOc3cccc(N(C)C)c3)cn2)cc1` [Compound 38], under setting [1], the activation at 10 µM was greater than 50%.
Same read-out and setting: in the case of `Cc1ccc(OCCN(C)C(=O)Cn2cc(NC(=O)CCOc3ccc(C)cc3F)cn2)cc1` [Compound 39] it was 30 to 50%; in that of `CN(CCOc1ccc(C(F)(F)F)cc1)C(=O)Cn1cc(NC(=O)CCOc2ccccc2F)cn1` [Compound 40], greater than 50%; in that of `CN(CCOc1cccnc1)C(=O)Cn1cc(NC(=O)CCOc2ccccc2F)cn1` [Compound 41], less than 30%.
The same measure, in the same setting: in the case of `COc1ccc(OCCC(=O)Nc2cnn(CC(=O)N(C)CCOc3ccc(C)cc3)c2)cc1` [Compound 42] it was 30 to 50%.
As for `CN(CCOc1ccccn1)C(=O)Cn1cc(NC(=O)CCOc2ccccc2F)cn1` [Compound 43, 3-(2-fluorophenoxy)-N-(1-(2-(methyl(2-(pyridin-2-yloxy)ethyl)amino)-2-oxoethyl)-1H-pyrazol-4-yl)propanamide], the activation at 10 µM was less than 30%.
Take `Cc1ccc(OCCN(C)C(=O)Cn2cc(NC(=O)CCOc3ccc(C(F)(F)F)cc3)cn2)cc1` [Compound 44]: the activation at 10 µM under setting [1] is less than 30%.
Still for that read-out and setting: to `CN(CCOc1ccc(Cl)nc1)C(=O)Cn1cc(NC(=O)CCOc2ccccc2F)cn1` [Compound 45] belongs 30 to 50%; to `Cc1ccc(OCCN(C)C(=O)Cn2cc(NC(=O)C(C)COc3ccccc3)cn2)cc1` (stereo not drawn) [Compound 46, 2-methyl-N-(1-(2-(methyl(2-(p-tolyloxy)ethyl)amino)-2-oxoethyl)-1H-pyrazol-4-yl)-3-phenoxypropanamide], greater than 50%.
For `CN(CCOc1cc(Cl)ccn1)C(=O)Cn1cc(NC(=O)CCOc2ccccc2F)cn1` [Compound 47], the activation at 10 µM under setting [1] is less than 30%.
As to `Cc1ccc(OCCN(C)C(=O)Cn2cc(NC(=O)CCOc3ccc(Cl)cc3F)cn2)cc1` [Compound 48], under setting [1], the activation at 10 µM is less than 30%.
On the same count and under the same terms, in the case of `Cc1ccc(OCCN(C)C(=O)Cn2cc(NC(=O)CCOc3ccc(F)cc3F)cn2)cc1` [Compound 49] it was greater than 50%.
Regarding `Cc1ccc(OCCN(C)C(=O)Cn2cc(N(C)C(=O)CCOc3ccccc3)cn2)cc1` [Compound 50], under setting [1], the activation at 10 µM is less than 30%.
On the same count and under the same terms, to `Cc1ccc(OCCN(C)C(=O)Cn2cc(N(C)C(=O)CCOc3ccccc3F)cn2)cc1` [Compound 51] belongs less than 30%; to `CCc1ccc(OCCN(C)C(=O)Cn2cc(NC(=O)CCOc3ccccc3F)cn2)cc1` [Compound 52], 30 to 50%.
On the same count and under the same terms, to `Cc1ccc(OCC(C)N(C)C(=O)Cn2cc(NC(=O)CCOc3ccccc3F)cn2)cc1` (stereo not drawn) [Compound 53] belongs greater than 50%; to `Cc1ccc(OCCN(C)C(=O)Cn2cc(NC(=O)CCOc3ccccc3OC(F)(F)F)cn2)cc1` [Compound 54], 30 to 50%.
For the compound `CN(CCOc1ccncc1)C(=O)Cn1cc(NC(=O)CCOc2ccccc2F)cn1` [Compound 55], under setting [1], the activation at 10 µM is less than 30%.
Still for that read-out and setting: in the case of `Cc1ccc(OCCN(C)C(=O)Cn2cc(NC(=O)CCOc3c(F)cccc3F)cn2)cc1` [Compound 56] it was greater than 50%; in that of `Cc1ccc(OCCN(C)C(=O)Cn2cc(NC(=O)CCOc3c(F)cccc3Cl)cn2)cc1` [Compound 57], 30 to 50%; in that of `Cc1ccc(OCCN(C)C(=O)Cn2cc(NC(=O)CCOc3c(C)cc(F)cc3C)cn2)cc1` [Compound 58], 30 to 50%.
Same read-out and setting: to `CCc1cc(F)ccc1OCCC(=O)Nc1cnn(CC(=O)N(C)CCOc2ccc(C)cc2)c1` [Compound 59] belongs less than 30%; to `Cc1ccc(OCCN(C)C(=O)Cn2cc(NC(=O)CCOc3ccc(F)cc3C(F)(F)F)cn2)cc1` [Compound 60], less than 30%.
Same read-out and setting: in the case of `Cc1ccc(OCCN(C)C(=O)Cn2cc(NC(=O)CCOc3cccc(CO)c3)cn2)cc1` [Compound 61] it was greater than 50%.
